# Reference: the supplement of paper PMC10307832
# Assays:
# Experiment in all cases: relative viability (nuclei count vs DMSO), 5 days (fraction); higher = more cells survive
# NCI-H2405 = test system: NCI-H2405
# In short: (§1)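 Relative viability is defined as nuclei in treated wells over nuclei in vehicle wells. Duplicate plates were run and medians reported. Lung cancer cell lines in 1536-well plates were dosed by pin tool one day after seeding, with one drug or with a fixed anchor-drug dose plus five library-drug doses (not always all listed) in √10 steps, and nuclei were counted after 5 days.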
# HCC-366 = test system: HCC-366
# In short: as §1
# NCI-H522 = test system: NCI-H522
# In short: as §1
# HCC-78 = test system: HCC-78
# In short: as §1
# COR-L 105 = test system: COR-L 105
# In short: as §1
# SK-MES-1 = test system: SK-MES-1
# In short: as §1
# NCI-H1993 = test system: NCI-H1993
# In short: as §1
# HCC-15 = test system: HCC-15
# In short: as §1
# NCI-H647 = test system: NCI-H647
# In short: as §1
# EMC-BAC-2 = test system: EMC-BAC-2
# In short: as §1
# NCI-H661 = test system: NCI-H661
# In short: as §1
# A-427 = test system: A-427
# In short: as §1
# NCI-H460 = test system: NCI-H460
# In short: as §1
# NCI-H1734 = test system: NCI-H1734
# In short: as §1
# COR-L23 = test system: COR-L23
# In short: as §1
# HOP-62 = test system: HOP-62
# In short: as §1
# 201T = test system: 201T
# In short: as §1
# BEN = test system: BEN
# In short: as §1
# LK-2 = test system: LK-2
# In short: as §1
# NCI-H1915 = test system: NCI-H1915
# In short: as §1
# EKVX = test system: EKVX
# In short: as §1
# PC-14 = test system: PC-14
# In short: as §1
structure (smiles),measurement,setting,value
Cc1csc(=NC2CCCCC2)n1/N=C/c1ccc(O)c(O)c1O [MIM1] + Cc1cc(Nc2cc(N3CCN(C)CC3)nc(Sc3ccc(NC(=O)C4CC4)cc3)n2)n[nH]1 [Tozasertib] (partner 0.1 µM),relative viability,NCI-H2405; first compound 0.2 µM,0.767
same,relative viability,NCI-H2405; first compound 0.6325 µM,0.721
same,relative viability,NCI-H2405; first compound 2 µM,0.682
same,relative viability,NCI-H2405; first compound 6.325 µM,0.549
same,relative viability,NCI-H2405; first compound 20 µM,0.537
same,relative viability,HCC-366; first compound 0.2 µM,0.147
same,relative viability,HCC-366; first compound 2 µM,0.134
same,relative viability,HCC-366; first compound 6.325 µM,0.026
same,relative viability,HCC-366; first compound 20 µM,0.0212
same,relative viability,NCI-H522; first compound 0.2 µM,0.622
same,relative viability,NCI-H522; first compound 0.6325 µM,0.572
same,relative viability,NCI-H522; first compound 2 µM,0.484
same,relative viability,NCI-H522; first compound 6.325 µM,0.608
same,relative viability,NCI-H522; first compound 20 µM,0.452
same,relative viability,HCC-78; first compound 0.2 µM,0.461
same,relative viability,HCC-78; first compound 0.6325 µM,0.288
same,relative viability,HCC-78; first compound 2 µM,0.454
same,relative viability,HCC-78; first compound 6.325 µM,0.39
same,relative viability,HCC-78; first compound 20 µM,0.337
same,relative viability,COR-L 105; first compound 0.2 µM,0.573
same,relative viability,COR-L 105; first compound 0.6325 µM,0.35
same,relative viability,COR-L 105; first compound 2 µM,0.341
same,relative viability,COR-L 105; first compound 6.325 µM,0.354
same,relative viability,COR-L 105; first compound 20 µM,0.338
same,relative viability,SK-MES-1; first compound 0.2 µM,0.909
same,relative viability,SK-MES-1; first compound 0.6325 µM,0.848
same,relative viability,SK-MES-1; first compound 2 µM,0.742
same,relative viability,SK-MES-1; first compound 6.325 µM,0.643
same,relative viability,SK-MES-1; first compound 20 µM,0.492
same,relative viability,NCI-H1993; first compound 0.2 µM,0.57
same,relative viability,NCI-H1993; first compound 0.6325 µM,0.538
same,relative viability,NCI-H1993; first compound 2 µM,0.539
same,relative viability,NCI-H1993; first compound 6.325 µM,0.518
same,relative viability,NCI-H1993; first compound 20 µM,0.433
same,relative viability,HCC-15; first compound 0.2 µM,0.354
same,relative viability,HCC-15; first compound 0.6325 µM,0.35
same,relative viability,HCC-15; first compound 2 µM,0.228
same,relative viability,HCC-15; first compound 6.325 µM,0.231
same,relative viability,HCC-15; first compound 20 µM,0.137
same,relative viability,NCI-H647; first compound 0.2 µM,0.262
same,relative viability,NCI-H647; first compound 0.6325 µM,0.27
same,relative viability,NCI-H647; first compound 6.325 µM,0.247
same,relative viability,NCI-H647; first compound 20 µM,0.11
same,relative viability,EMC-BAC-2; first compound 0.2 µM,0.219
same,relative viability,EMC-BAC-2; first compound 0.6325 µM,0.3
same,relative viability,EMC-BAC-2; first compound 2 µM,0.273
same,relative viability,EMC-BAC-2; first compound 6.325 µM,0.272
same,relative viability,EMC-BAC-2; first compound 20 µM,0.202
same,relative viability,NCI-H661; first compound 0.2 µM,0.35
same,relative viability,NCI-H661; first compound 0.6325 µM,0.367
same,relative viability,NCI-H661; first compound 2 µM,0.361
same,relative viability,NCI-H661; first compound 6.325 µM,0.363
same,relative viability,NCI-H661; first compound 20 µM,0.285
same,relative viability,A-427; first compound 0.2 µM,0.266
same,relative viability,A-427; first compound 2 µM,0.202
same,relative viability,A-427; first compound 6.325 µM,0.249
same,relative viability,A-427; first compound 20 µM,0.164
same,relative viability,NCI-H460; first compound 0.2 µM,0.447
same,relative viability,NCI-H460; first compound 0.6325 µM,0.499
same,relative viability,NCI-H460; first compound 2 µM,0.149
same,relative viability,NCI-H460; first compound 20 µM,0.0359
same,relative viability,NCI-H1734; first compound 0.2 µM,0.226
same,relative viability,NCI-H1734; first compound 0.6325 µM,0.261
same,relative viability,NCI-H1734; first compound 2 µM,0.256
same,relative viability,NCI-H1734; first compound 6.325 µM,0.169
same,relative viability,NCI-H1734; first compound 20 µM,0.124
same,relative viability,COR-L23; first compound 0.2 µM,0.184
same,relative viability,COR-L23; first compound 0.6325 µM,0.218
same,relative viability,COR-L23; first compound 2 µM,0.182
same,relative viability,COR-L23; first compound 6.325 µM,0.146
same,relative viability,COR-L23; first compound 20 µM,0.152
same,relative viability,HOP-62; first compound 0.2 µM,0.38
same,relative viability,HOP-62; first compound 0.6325 µM,0.378
same,relative viability,HOP-62; first compound 2 µM,0.298
same,relative viability,HOP-62; first compound 6.325 µM,0.335
same,relative viability,HOP-62; first compound 20 µM,0.184
same,relative viability,201T; first compound 0.2 µM,0.956
same,relative viability,201T; first compound 0.6325 µM,1
same,relative viability,201T; first compound 2 µM,0.896
same,relative viability,201T; first compound 6.325 µM,0.504
same,relative viability,201T; first compound 20 µM,0.377
same,relative viability,BEN; first compound 0.2 µM,0.549
same,relative viability,BEN; first compound 0.6325 µM,0.438
same,relative viability,BEN; first compound 2 µM,0.498
same,relative viability,BEN; first compound 6.325 µM,0.482
same,relative viability,BEN; first compound 20 µM,0.346
same,relative viability,LK-2; first compound 0.2 µM,0.186
same,relative viability,LK-2; first compound 2 µM,0.161
same,relative viability,LK-2; first compound 6.325 µM,0.166
same,relative viability,LK-2; first compound 20 µM,0.142
same,relative viability,NCI-H1915; first compound 0.2 µM,0.499
same,relative viability,NCI-H1915; first compound 0.6325 µM,0.403
same,relative viability,NCI-H1915; first compound 2 µM,0.337
same,relative viability,NCI-H1915; first compound 6.325 µM,0.305
same,relative viability,NCI-H1915; first compound 20 µM,0.182
same,relative viability,EKVX; first compound 0.2 µM,0.474
same,relative viability,EKVX; first compound 0.6325 µM,0.357
same,relative viability,EKVX; first compound 2 µM,0.355
same,relative viability,EKVX; first compound 6.325 µM,0.28
same,relative viability,EKVX; first compound 20 µM,0.337
same,relative viability,PC-14; first compound 0.2 µM,0.526
same,relative viability,PC-14; first compound 0.6325 µM,0.593
same,relative viability,PC-14; first compound 2 µM,0.413
same,relative viability,PC-14; first compound 6.325 µM,0.502
same,relative viability,PC-14; first compound 20 µM,0.357
